Measured values reported in patent publication US9497963B2, “Methods and compositions for control of gypsy moth, Lymantria dispar” (Simon Fraser University, priority 2008, dated 2016).
Like-named read-outs stand apart in the source and are kept apart here. Marks after values point to notes of the source that are not given here.

How the values were obtained:
[1] = tested on: male gypsy moth antenna; assay: Coupled gas chromatographic-electroantennographic detection (GC-EAD); set-up: species or system Lymantria dispar; conditions: EAD peak size and shape (sharp/broad)
From the text: In GC-EAD assays, the analyte is processed by gas chromatography (GC). The column effluent is split, such that molecules of each chromatographic peak arrive simultaneously at the flame ionization detector of the GC and at an anectomized but otherwise intact insect antenna as the biological detector. This procedure detects specific compounds in the analyte that elicit an electrical potential from the antenna.
For GC-EAD recordings, an antenna was carefully dislodged from a male moth's head, and the antennal base placed into the opening of a glass capillary electrode (0.58 mm ID×65 mm length) (A-M Systems, Inc., Carlsborg, Wash., USA) filled with saline solution. The tip of the antenna was removed by spring microscissors (Fine Science Tools Inc., North Vancouver, British Columbia, Canada) and then placed into the opening of the recording electrode mounted on a portable micromanipulator and positioned in front of a constant stream of warm air (Praxair Canada Inc., Mississauga, Ontario, Canada) which delivered the GC column eluent. […] Identical retention times of compounds detected by the flame ionization detector of the GC and by the insect antenna allowed assignment of antennal responses to specific compounds in the eluent.

[2] = tested on: male gypsy moth antenna response to pheromone (+)-1; assay: EAG short-term (STI) and long-term (LTI) inhibition of pheromone signaling (Example 5); set-up: species or system Lymantria dispar; conditions: for inhibition at 0.001 mg / inhibition at 0.01 mg / inhibition at 0.1 mg / inhibition at 100 µg, 0.1 mg: Lymantria dispar; for inhibition at 0.001 mg / inhibition at 0.01 mg / inhibition at 0.1 mg / Activity (%): short-term inhibition (STI): negative = enhancement; for inhibition at 0.001 mg / inhibition at 0.01 mg / inhibition at 0.1 mg: read-out: Activity (%): short-term inhibition (STI); for inhibition at 100 µg, 0.1 mg: read-out: Activity (%): long-term inhibition (LTI)
Experimental: The puffs are numbered i-vi and were: i=air, ii=pure pheromone (+)-disparlure, (+)-1, (100 ng), iii-v=disparlure mixed with the test compound, the latter at three different doses, vi=pure (+)-1. Depolarizations from the resting potential are labeled d; hyperpolarizations seen during the recovery phase after a puff are labeled r. Subscripts refer to the puff number. FIG. 5A. Typical trace for compound 3c{2,3}. FIG. 5B. Typical trace for compound 3a{4,4}.
For other compounds, EAG traces were recorded as follows: a fully dislodged antenna from a male gypsy moth was mounted on the end of a reference electrode (a glass capillary with a silver wire, filled with buffered saline: 5 mM NaH2PO4, 10 mM Na2SO4, 4.5 mM KHCO3, 18 mM MgCl2, 4 mM CaCl2, 6 mM KCl, the pH is adjusted to 6.8 using 5 mM Na2HPO4). The tip of the antenna was severed with microscissors and placed in the recording electrode, which was mounted on a micromanipulator. A constant stream of air, that had been purified (charcoal filter), was blown over the antenna at a rate of 300 mL/min. Test samples were delivered through a stimulus delivery tube with a side opening 2 cm from the distal opening. The proximal end of the delivery tube was connected to a controlled stimulus delivery apparatus (Stimulus controller CS-05 Syntech Research and Equipment, NL 1200BM, Hilversum, The Netherlands). The distal end of the delivery tube pointed at the antenna (1 cm from the antenna). The side opening was connected to a cartridge fashioned from a Pasteur pipette which contained a small filter paper (Whatman No. 1) with the stimulus. These pipette cartridges could be prepared a few days in advance and stored at −80° C. wrapped in Al foil and in sealable plastic bags. Sample cartridges were mounted once they had reached room temperature. The stimulus delivery apparatus delivered a second stream of air (a puff) through the Pasteur pipette at a velocity of 600 mL/min, at a specified point in time, for 0.3 s. Receptor potentials of the antennae in response to test stimuli were recorded with a Syntech IDAC probe, amplifier and interfaced board, and were analyzed with EAG Syntech Software Version 2.4 (1996). See FIG. 4 for a representative EAG trace. The EAG traces were evaluated as follows (see FIG. 5).
The net depolarizations, d(net) (in mV), of puffs ii-vi,d(sample), (corrected for the depolarization with clean air, d(air)) d(net)=d(sample)−d(air) (Eq. 1)
The percentage short-term inhibition for each compound (STI(compound)) of puffs iii-v, relative to the first pure pheromone puff (ii) STI(compound)=100×(d(net)(ii)−d(net)(compound))/d(net)(ii) (Eq. 2)
c) the percentage long-term inhibition for each compound (LTI(compound)) of the pure pheromone puff that followed the last mixed puff (vi) relative to the first pure pheromone puff (ii) LTI(compound)=100×(d(net)(ii)−d(net)(vi))/d(net)(ii) (Eq. 3)
The compounds we tested gave weak or no olfactory responses by themselves in electroantennogram (EAG) experiments. The EAG trace reflects the change in the potential across the antenna when an air puff with an odorant is passed over the antenna. To understand the agonistic or antagonistic effect of the compounds on pheromone responses by male moth antennae, four types of EAG experiment were conducted. First, the response of the antenna elicited by a stimulus of pure (+)-1 was compared to the responses elicited by blends of (+)-1 with the test compound (FIG. 5). […] This effect was termed short-term inhibition (STI). […] Second, the time decay and dose responses for LTI activities were studied. Third, the strongest inhibitors were tested for their ability to cause LTI by themselves.
This experiment explored the agonistic or antagonistic activity of the synthetic aromatic compounds (Scheme 1 and eugenol and alkyl eugenols) with the gypsy moth pheromone (+)-1. […]

[3] = mixed plume (+)-1 100 ng + compound 1 μg, mean ± S.E.
[4] = mixed plume (+)-1 100 ng + compound 10 μg, mean ± S.E.
[5] = mixed plume (+)-1 100 ng + compound 100 μg (puff v), mean ± S.E.
[6] = pure (+)-1 100 ng plume following mixed plume with 100 μg compound, mean ± S.E.

SMILES | GC-EAD activity [1] | inhibition at 0.001 mg [2, 3] [%] | inhibition at 0.01 mg [2, 4] [%] | inhibition at 0.1 mg [2, 5] [%] | inhibition at 100 µg, 0.1 mg [2, 6] [%] | long-term inhibition (LTI) activity (in words) [2] | short-term effect on antennal pheromone response (in words) [2] | Activity (%): short-term inhibition (STI) [2, 3] | Activity (%): short-term inhibition (STI) [2, 4] | Activity (%): short-term inhibition (STI) [2, 5] | Activity (%): long-term inhibition (LTI) [2, 6] | inhibition at 100 µg, 0.1 mg [2] [%]
CC(C)CCOc1ccccc1OCCC(C)C [3a{5,5}, 1,2-Di-(3-methyl-butyloxy) benzene] | None | -77 ± 58 | -55 ± 67 | -105 ± 81 | 0 |  |  |  |  |  |  | 
C=CCOc1cccc(OCCC)c1 [3b{3,6}, 1-allyloxy-3-propoxybenzene] | None | -85 ± 30 | -85 ± 80 | -96 ± 98 | 48 ± 7 | most active long-term inhibitor |  |  |  |  |  | 
C=CCOc1cccc(OCCCC)c1 [3b{4,6}, 1-allyloxy-3-n-butoxybenzene] | None | -66 ± 43 | -101 ± 76 | 8 ± 46 | 27 ± 12 |  |  |  |  |  |  | 
CCOc1cccc(OCC)c1 [3b{2,2}, 1,3-Diethoxy benzene] | Trace | -100 ± 51 | -12 ± 70 | 63 ± 65 | 39 ± 6 |  |  |  |  |  |  | 
CCCCOc1ccc(O)cc1 [2c{4}, 4-Butoxy phenol] | None | 12 ± 37 | 38 ± 11 | -122 ± 84 | 26 ± 13 |  | short-term enhancements |  |  |  |  | 
CCCCOc1cccc(OCCCC)c1 [3b{4,4}, 1,3-Dibutoxy benzene] | None | 4 ± 45 | -72 ± 91 | -42 ± 93 | 8 ± 9 |  |  |  |  |  |  | 
C=CCc1ccc(OCCC(C)C)c(OC)c1 [iPent eugenol] | None |  |  |  |  |  |  | 11 ± 33 (6) % | −98 ± 26 (6) % | −106 ± 24 (6) % | 5 ± 8 (6) % | 
CCCOc1ccccc1O [2a{3}, 2-Propoxy phenol] | None | -26 ± 14 | 32 ± 9 | 46 ± 13 | 18 ± 5 |  |  |  |  |  |  | 
COc1ccccc1O [2a{1}] | None |  |  |  |  |  |  | 26 ± 14 (13)^e % | −27 ± 24 (13) % | 9 ± 11 (13) % | −13 ± 9 (13) % | 
C=CCOc1ccccc1OCC=C [3a{6,6}, 1,2-Diallyloxy benzene] | None | 32 ± 16 | 16 ± 24 | -27 ± 48 | 17 ± 28 |  |  |  |  |  |  | 
C=CCOc1ccc(OCCC)cc1 [3c{3,6}, 1-allyloxy-4-propoxybenzene] | + broad | -57 ± 46 | -114 ± 51 | -168 ± 76 | 39 ± 15 |  |  |  |  |  |  | 
C=CCOc1cccc(O)c1 [2b{6}] | None |  |  |  |  |  |  | 24 ± 23 (7) % | 28 ± 20 (7) % | 5 ± 32 (7) % | 1 ± 7 (7) % | 
C=CCc1ccc(OCCCC)c(OC)c1 [Bu eugenol] | None |  |  |  |  |  |  | 39 ± 17 (6) % | −68 ± 29 (6) % | −116 ± 24 (6) % | 7 ± 4 (6) % | 
C=CCOc1cccc(OC)c1 [3b{1,6}, 1-allyloxy-3-methoxybenzene] | None | -67 ± 61 | -107 ± 88 | -95 ± 106 | 14 ± 13 |  |  |  |  |  |  | 
CCCCOc1ccccc1O [2a{4}, 2-Butoxy phenol] | None | 26 ± 12 | 21 ± 11 | 50 | 5 ± 6 |  |  |  |  |  |  | 
COc1cccc(O)c1 [2b{1}, 3-Methoxy phenol] | None | 6 ± 11 | 14 ± 22 | 49 ± 8 | 4 ± 7 |  |  |  |  |  |  | 
C=CCc1ccc(O)c(OC)c1 [eugenol, 2-methoxy-4-(2-propenyl) phenol, reference compound] | None |  |  |  |  |  |  |  |  |  |  | 14 ± 10
CC(C)CCOc1ccccc1O [2a{5}, 2-(3-Methyl-butyloxy) phenol] | None | 22 ± 8 | -44 ± 26 | -37 ± 33 | 6 ± 6 |  | slightly agonistic |  |  |  |  | 
C=CCOc1cccc(OCCC(C)C)c1 [3b{5,6}, 1-allyloxy-3-isopentoxybenzene] | None | -69 ± 34 | -85 ± 65 | -99 ± 88 | 15 ± 8 |  |  |  |  |  |  | 
CCOc1cccc(O)c1 [2b{2}, 3-Ethoxy phenol] | None | 4 ± 20 | 0 | 44 ± 18 | -3 ± 5 |  |  |  |  |  |  | 
CCCOc1cccc(O)c1 [2b{3}, 3-Propoxy phenol] | None | -6 ± 14 | 36 ± 19 | 65 ± 14 | 8 ± 6 |  |  |  |  |  |  | 
C=CCOc1cccc(OCC=C)c1 [3b{6,6}, 1,3-Diallyloxy benzene] | None | 11 ± 18 | 10 ± 22 | -34 ± 41 | 33 ± 12 |  |  |  |  |  |  | 
CCCCOc1cccc(O)c1 [2b{4}, 3-butoxyphenol] | None | -6 ± 18 | -20 ± 31 | -74 ± 71 | -1 ± 15 |  | short-term enhancements |  |  |  |  | 
C=CCc1ccc(OCC)c(OC)c1 [Et eugenol] | None | 3 ± 27 | 19 ± 18 | -121 ± 15 | 20 ± 3 |  |  |  |  |  |  | 
